# From patent US8906852B2 (MethylGene Inc., priority 2010, dated 2014)
# Biological target: T1, VEGFR/KDR (Homo sapiens, UniProt P35968)
# T1 construct: made in house; host or cells: Sf9 cells (Spodoptera frugiperda), baculovirus
# Test: VEGFR/KDR kinase inhibition, DELFIA assay
# Format: biochemical
# Conditions: ATP 0.6 uM (2x Km), enzyme 5 nM
# In short: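 DELFIA time-resolved fluorescence readout using Europium-tagged anti-phosphotyrosine antibody after EDTA stop. Kinase reaction on plate-bound poly(Glu4,Tyr) ran 10-30 min at 30° C with 5 nM enzyme and 0.6 uM ATP (2× Km), following 4 min on-ice pre-incubation with compound; IC50 over a concentration range.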
# T1 sequence (P35968 806-1356): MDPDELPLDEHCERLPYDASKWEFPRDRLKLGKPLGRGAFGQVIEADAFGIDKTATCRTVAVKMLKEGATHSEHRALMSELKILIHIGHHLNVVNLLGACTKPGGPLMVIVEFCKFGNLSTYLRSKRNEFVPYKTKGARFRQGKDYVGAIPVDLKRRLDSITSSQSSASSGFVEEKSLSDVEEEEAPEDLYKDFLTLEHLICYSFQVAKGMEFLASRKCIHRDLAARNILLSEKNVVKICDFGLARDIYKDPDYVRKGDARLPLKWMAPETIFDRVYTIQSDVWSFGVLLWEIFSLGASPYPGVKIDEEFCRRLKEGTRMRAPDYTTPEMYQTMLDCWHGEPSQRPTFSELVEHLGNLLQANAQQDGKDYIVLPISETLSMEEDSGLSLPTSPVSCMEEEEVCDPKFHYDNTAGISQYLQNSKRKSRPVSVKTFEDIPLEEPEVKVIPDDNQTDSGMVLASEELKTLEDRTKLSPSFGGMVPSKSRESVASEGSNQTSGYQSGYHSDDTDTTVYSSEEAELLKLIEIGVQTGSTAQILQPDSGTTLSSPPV
row,IC50 [µM],SMILES
1,< 0.05,"CNC(=O)CCN1CCN(Cc2ccc(-c3cc4nccc(Oc5ccc(NC(=O)NC6CC6)cc5F)c4s3)nc2)CC1 [Compound 81, 3-(4-((6-(7-(4-(3-cyclopropylureido)-2-fluorophenoxy)thieno[3,2-b]pyridin-2-yl)pyridin-3-yl)methyl)piperazin-1-yl)-N-methylpropanamide]"
2,< 0.05,CN(C)CCCn1cc(-c2cc3nccc(Oc4ccc(NC(=O)NC5CC5)cc4F)c3s2)nn1 [Compound 384]
3,< 0.05,O=C(Nc1ccc(Oc2ccnc3cc(-c4cn(CC(=O)N5CCOCC5)nn4)sc23)c(F)c1)NC1CC1 [Compound 368]
4,< 0.05,"O=C(O)CC(=O)N1CCN(Cc2ccc(-c3cc4nccc(Oc5ccc(NC(=O)NC6CC6)cc5F)c4s3)nc2)CC1 [Compound 510, 3-(4-((6-(7-(4-(3-cyclopropylureido)-2-fluorophenoxy)thieno[3,2-b]pyridin-2-yl)pyridin-3-yl)methyl)piperazin-1-yl)-3-oxopropanoic acid]"
5,< 0.05,"CN(C)CCNC(=O)[C@@H]1CCCN1Cc1ccc(-c2cc3nccc(Oc4ccc(NC(=O)NC5CC5)cc4F)c3s2)nc1 [Compound 487, (S)-1-((6-(7-(4-(3-cyclopropylureido)-2-fluorophenoxy)thieno[3,2-6]pyridin-2-yl)pyridin-3-yl)methyl)-N-(2-(dimethylamino)ethyl) pyrrolidine-2-carboxamide]"
6,< 0.05,"O=C(O)CCCCCCCN1CCN(Cc2ccc(-c3cc4nccc(Oc5ccc(NC(=O)NC6CC6)cc5F)c4s3)nc2)CC1 [Compound 522, 8-(4-((6-(7-(4-(3-cyclopropylureido)-2-fluorophenoxy)thieno[3,2-b]pyridin-2-yl)pyridin-3-yl)methyl)piperazin-1-yl)octanoic acid]"
7,< 0.05,C[C@H]1CN(Cc2ccc(-c3cc4nccc(Oc5ccc(NC(=O)NC6CC6)cc5F)c4s3)nc2)CCN1 [Compound 527]
8,< 0.05,"COCCN(CCc1ccc(-c2cc3nccc(Oc4ccc(NC(=O)NC5CC5)cc4F)c3s2)nc1)C(=O)CO [Compound 46, N-(2-(6-(7-(4-(3-cyclopropylureido)-2-fluorophenoxy)thieno[3,2-b]pyridin-2-yl)pyridin-3-yl)ethyl)-2-hydroxy-N-(2-methoxyethyl)-acetamide]"
9,< 0.05,"O=C(Nc1ccc(Oc2ccnc3cc(-c4cnn(CCN5CCCC5=O)c4)sc23)c(F)c1)NC1CC1 [Compound 166, 1-cyclopropyl-3-(3-fluoro-4-(2-(1-(2-(2-oxopyrrolidin-1-yl)ethyl)-1H-pyrazol-4-yl)thieno[3,2-b]pyridin-7-yloxy)phenyl)urea]"
10,< 0.05,"CCOC(=O)C1CCN(Cc2ccc(-c3cc4nccc(Oc5ccc(NC(=O)NC6CC6)cc5F)c4s3)nc2)CC1 [Compound 58, ethyl 1-((6-(7-(4-(3-cyclopropylureido)-2-fluorophenoxy)-thieno[3,2-b]pyridin-2-yl)pyridin-3-yl)methyl)piperidine-4-carboxylate]"
11,< 0.05,"Cn1ccc(NCc2ccc(-c3cc4nccc(Oc5ccc(NC(=O)NC6CC6)cc5F)c4s3)nc2)n1 [Compound 334, 1-Cyclopropyl-3-(3-fluoro-4-(2-(5-((1-methyl-1H-pyrazol-3-ylamino)methyl)pyridin-2-yl)thieno[3,2-b]pyridin-7-yloxy)phenyl)urea]"
12,< 0.05,CCNC(=O)N1CCN(C(=O)Cn2cc(-c3cc4nccc(Oc5ccc(NC(=O)NC6CC6)cc5F)c4s3)nn2)CC1 [Compound 394]
13,0.1 to 0.25,"CC(C)NC(=O)Nc1ccc(Oc2ccnc3cc(-c4ncc(C(=O)N5CCCC5)n4C)sc23)c(F)c1 [Compound 223, 1-(3-fluoro-4-(2-(1-methyl-5-(pyrrolidine-1-carbonyl)-1H-imidazol-2-yl)thieno[3,2-b]pyridin-7-yloxy)phenyl)-3-isopropylurea]"
14,< 0.05,"O=C(O)CNC(=O)NC1CCN(Cc2ccc(-c3cc4nccc(Oc5ccc(NC(=O)NC6CC6)cc5F)c4s3)nc2)CC1 [Compound 426, 2-(3-(1-((6-(7-(4-(3-Cyclopropylureido)-2-fluorophenoxy)thieno[3,2-b]pyridin-2-yl)pyridin-3-yl)methyl)piperidin-4-yl)ureido)acetic acid]"
15,< 0.05,"CN1CCN(C(=O)c2ccc(-c3cc4nccc(Oc5ccc(NC(=O)NC6CC6)cc5F)c4s3)nc2)CC1 [Compound 228, 1-cyclopropyl-3-(3-fluoro-4-(2-(5-(4-methylpiperazine-1-carbonyl)pyridin-2-yl)thieno[3,2-b]pyridin-7-yloxy)phenyl)urea]"
16,< 0.05,"CN(CCC(=O)O)C1CCN(Cc2ccc(-c3cc4nccc(Oc5ccc(NC(=O)NC6CC6)cc5F)c4s3)nc2)CC1 [Compound 424, 3-((1-((6-(7-(4-(3-Cyclopropylureido)-2-fluorophenoxy)thieno[3,2-b]pyridin-2-yl)pyridin-3-yl)methyl)piperidin-4-yl)(methyl)amino)propanoic acid]"
17,< 0.05,"Cc1cc(NCc2ccc(-c3cc4nccc(Oc5ccc(NC(=O)NC6CC6)cc5F)c4s3)nc2)nn1C [Compound 335, 1-cyclopropyl-3-(4-(2-(5-((1,5-dimethyl-1H-pyrazol-3-ylamino)methyl)pyridin-2-yl)thieno[3,2-b]pyridin-7-yloxy)-3-fluorophenyl)urea]"

row,IC50 [µM],SMILES
1,< 0.05,"COCCNCCc1ccc(-c2cc3nccc(Oc4ccc(NC(=S)NC(=O)Cc5ccc(F)cc5)cc4F)c3s2)nc1 [Compound 187, N-(3-fluoro-4-(2-(5-(2-(2-methoxyethylamino)ethyl)pyridin-2-yl)thieno[3,2-b]pyridin-7-yloxy)phenylcarbamothioyl)-2-(4-fluorophenyl)acetamide]"
2,< 0.05,"O=C(Nc1ccc(Oc2ccnc3cc(C(=O)N4CCCC(C(=O)O)C4)sc23)c(F)c1)NC1CC1 (stereo not shown) [Compound 466, 1-(7-(4-(3-cyclopropylureido)-2-fluorophenoxy)thieno[3,2-b]pyridine-2-carbonyl)piperidine-3-carboxylic acid]"
3,< 0.05,CNC1CCN(Cc2ccc(-c3cc4nccc(Oc5ccc(NC(=O)NC6CC6)cc5F)c4s3)nc2)CC1 [Compound 401]
4,< 0.05,CC(C)(C)OC(=O)NC1CCN(C(=O)Cn2cc(-c3cc4nccc(Oc5ccc(NC(=O)NC6CC6)cc5F)c4s3)nn2)C1 (stereo not shown) [Compound 382]
5,< 0.05,"CN(CCO)C(=O)[C@@H]1CCCN1Cc1ccc(-c2cc3nccc(Oc4ccc(NC(=O)NC5CC5)cc4F)c3s2)nc1 [Compound 486, (S)-1-((6-(7-(4-(3-cyclopropylureido)-2-fluorophenoxy)thieno[3,2-b]pyridin-2-yl)pyridin-3-yl)methyl)-N-(2-hydroxyethyl)-N-methylpyrrolidine-2-carboxamide]"
6,< 0.05,CN1CCC(C(=O)N2CCN(Cc3ccc(-c4cc5nccc(Oc6ccc(NC(=O)NC7CC7)cc6F)c5s4)nc3)CC2)CC1 [Compound 539]
7,< 0.05,CC(=O)NC1CCN(Cc2ccc(-c3cc4nccc(Oc5ccc(NC(=O)NC6CC6)cc5F)c4s3)nc2)CC1 [Compound 344]
8,< 0.05,"Cn1c(C(=O)NCCN2CCOCC2)cnc1-c1cc2nccc(Oc3ccc(NC(=O)NC4CC4)cc3F)c2s1 [Compound 217, 2-(7-(4-(3-cyclopropylureido)-2-fluorophenoxy)thieno[3,2-b]pyridin-2-yl)-1-methyl-N-(2-morpholinoethyl)-1H-imidazole-5-carboxamide]"
9,< 0.05,CC(C)(C)OC(=O)NCC(=O)N1CCN(C(=O)Cn2cc(-c3cc4nccc(Oc5ccc(NC(=O)NC6CC6)cc5F)c4s3)nn2)CC1 [Compound 392]
10,< 0.05,"COCCN(Cc1ccc(-c2cc3nccc(Oc4ccc(NC(=O)NC5CC5)cc4F)c3s2)nc1)C(=O)[C@@H](NC(=O)CN)C(C)C [Compound 93, (S)-2-(2-aminoacetamido)-N-((6-(7-(4-(3-cyclopropylureido)-2-fluorophenoxy)-thieno[3,2-b]pyridin-2-yl)pyridin-3-yl)methyl)-N-(2-methoxyethyl)-3-methylbutanamide]"
11,< 0.05,"O=C(O)CCCCCCN1CCN(Cc2ccc(-c3cc4nccc(Oc5ccc(NC(=O)NC6CC6)cc5F)c4s3)nc2)CC1 [Compound 521, 7-(4-((6-(7-(4-(3-cyclopropylureido)-2-fluorophenoxy)thieno[3,2-b]pyridin-2-yl)pyridin-3-yl)methyl)piperazin-1-yl)heptanoic acid]"
12,< 0.05,"COCCN(Cc1ccc(-c2cc3nccc(Oc4ccc(NC(=O)NC5CC5)cc4F)c3s2)nc1)C(=O)CNC(=O)[C@@H](N)C(C)C [Compound 92, (S)-2-amino-N-(2-(((6-(7-(4-(3-cyclopropylureido)-2-fluorophenoxy)thieno[3,2-b]pyridin-2-yl)pyridin-3-yl)methyl)(2-methoxyethyl)amino)-2-oxoethyl)-3-methylbutanamide]"
13,< 0.05,"C[C@@H]1CN(Cc2ccc(-c3cc4nccc(Oc5ccc(NC(=O)NC6CC6)cc5F)c4s3)nc2)C[C@H](C)N1 [Compound 530, 1-cyclopropyl-3-(4-(2-(5-(((3S,5R)-3,5-dimethylpiperazin-1-yl)methyl)pyridin-2-yl)thieno[3,2-b]-pyridin-7-yloxy)-3-fluorophenyl)urea]"
14,< 0.05,CCNC(=O)N1CCN(Cc2ccc(-c3cc4nccc(Oc5ccc(NC(=O)NC6CC6)cc5F)c4s3)nc2)C[C@@H]1C [Compound 556]
15,< 0.05,"O=C(Nc1ccc(Oc2ccnc3cc(-c4ccc(C(=O)N5CCN(CCO)CC5)cn4)sc23)c(F)c1)NC1CC1 [Compound 581, 1-cyclopropyl-3-(3-fluoro-4-(2-(5-(4-(2-hydroxyethyl)piperazine-1-carbonyl)pyridin-2-yl)thieno[3,2-b]pyridin-7-yloxy)phenyl)urea]"
16,< 0.05,"O=C(O)CCCCCN1CCN(Cc2ccc(-c3cc4nccc(Oc5ccc(NC(=O)NC6CC6)cc5F)c4s3)nc2)CC1 [Compound 520, 6-(4-((6-(7-(4-(3-cyclopropylureido)-2-fluorophenoxy)thieno[3,2-b]pyridin-2-yl)pyridin-3-yl)methyl)piperazin-1-yl)hexanoic acid]"
17,< 0.05,O=C(Nc1ccc(Oc2ccnc3cc(-c4ccc(CN5CCN(C(=O)[C@@H](O)CO)CC5)cn4)sc23)c(F)c1)NC1CC1 [Compound 536]
